{
  "source": "patent US12377112B2",
  "about": "“Methods of treating neurocognitive disorders, chronic pain and reducing inflammation” (priority 2019, dated 2025)",
  "tested_on": "healthy participants",
  "test": "Phase 1 study: Rapid Visual Information Processing (RVPA)",
  "format": "in vivo, human",
  "conditions": "Treatment V6 Day 28 (remote)",
  "from_the_text": "In some embodiments, the Rapid Visual Information Processing (RVP) test is utilized to evaluate the safety and efficacy of psilocybin. The RVP is a measure of sustained attention outputting measures of response accuracy, target sensitivity and reaction times. In this test, the study subject is required to monitor a stream of digits from 2 to 9 for specific sequences (e.g., 3-5-7) and to acknowledge detection of the sequence by touching the on-screen response button as quickly as possible after presentation of the third digit. Digits are presented pseudorandomly to create the possibility of ‘false alarm’ responses in which the first 2 digits of a sequence are not followed by a true target, e.g., when 3 is followed by a 5, but not then by a 7. In order to complete the task successfully study subjects must sustain attention to the white box in which the digits appear. Performance on this task is measured by the speed of response to the presentation of the final digit of a target, as well as the study subject's ability to detect specified sequences. […]\nTo assess the effects of psilocybin on cognitive processing, a clinical trial testing psilocybin in healthy participants was performed. […] Rapid visual information processing (RVP), a sensitive measure of sustained attention, was assessed twice prior to dosing (Day 0): during screening (Day −2) and at baseline (Day −1). […]",
  "data": [
    {"smiles": "CN(C)CCc1c[nH]c2cccc(OP(=O)(O)O)c12", "note": "[Psilocybin, psilocybin]", "values": [
      {"measurement": "RVPA difference of least squares mean compared to placebo group, LS mean Estimate", "setting": "10 mg single oral", "result": 0.01096},
      {"measurement": "RVPA difference of least squares mean compared to placebo group, LS mean Estimate", "setting": "25 mg single oral", "result": 0.01225}
    ]}
  ]
}
